Measured values from ChEMBL document CHEMBL1201862, “PubChem BioAssay data set” (2004).
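Cells were grown in 96-well plates and exposed to each compound for 48 hours at five concentrations; endpoints were interpolated linearly between bracketing concentrations, or set to the highest concentration if not reached. GI50 is the concentration that inhibits growth by half.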 The source made the active and inactive calls. No stated cut-off is given here; in the data, active = GI50 up to about 1.1 µM and inactive = higher.

Key:
Assay in all cases: NCI-60 cell line screen, 48 h
[1] = system: OVCAR-8
[2] = system: HCT-116
[3] = system: SR
[4] = system: NCI/ADR-RES
[5] = system: ACHN
[6] = system: Malme-3M
[7] = system: HL-60
[8] = system: MCF7
[9] = system: 786-0
[10] = system: CAKI-1
[11] = system: LOX IMVI
[12] = system: UACC-62
[13] = system: SF-268
[14] = system: IGROV-1
[15] = system: UO-31
[16] = system: SK-MEL-28
[17] = system: RPMI-8226
[18] = system: MDA-MB-231
[19] = system: T47D
[20] = system: SF-539
[21] = system: SNB-19
[22] = system: NCI-H460
[23] = system: U-251
[24] = system: UACC-257
[25] = system: Hs-578T
[26] = system: RXF 393
[27] = system: EKVX
[28] = system: NCI-H23
[29] = system: NCI-H226
[30] = system: TK-10
[31] = system: K562
[32] = system: M14
[33] = system: SNB-75
[34] = system: CCRF-CEM
[35] = system: OVCAR-3
[36] = system: A549
[37] = system: SK-MEL-5
[38] = system: OVCAR-5
[39] = system: SN12C
[40] = system: MDA-N
[41] = system: KM12
[42] = system: NCI-H522
[43] = system: SF-295
[44] = system: OVCAR-4
[45] = system: HCC 2998
[46] = system: HOP-92
[47] = system: SW-620
[48] = system: HT-29
[49] = system: MOLT-4
[50] = system: PC-3
[51] = system: COLO 205
[52] = system: A498
[53] = system: SK-MEL-2
[54] = system: SK-OV-3
[55] = system: MDA-MB-435
[56] = system: BT-549
[57] = system: HCT-15
[58] = system: HOP-62
[59] = system: DU-145
[60] = system: DMS-273
[61] = system: LXFL 529
[62] = system: DMS-114
[63] = system: KM-20L2
[64] = system: SNB-78
[65] = system: HOP-18
[66] = system: M19-MEL

COc1ccc(-c2cn3c(nc4ccccc43)c(C)n2)cc1
GI50 [1]: 34.4 µM (inactive) | GI50 [2]: 85.1 µM (inactive) | GI50 [3]: > 77.4 µM (inactive) | GI50 [4]: 33.6 µM (inactive) | GI50 [5]: 45.2 µM (inactive) | GI50 [6]: 69.2 µM (inactive) | GI50 [7]: > 56.1 µM (inactive) | GI50 [8]: 12.2 µM (inactive) | GI50 [9]: 41 µM (inactive) | GI50 [10]: 52.1 µM (inactive) | GI50 [11]: > 93.5 µM (inactive) | GI50 [12]: 35.3 µM (inactive) | GI50 [13]: > 51.5 µM (inactive) | GI50 [14]: 28.8 µM (inactive) | GI50 [15]: 13.7 µM (inactive) | GI50 [16]: 95.5 µM (inactive) | GI50 [17]: > 75.9 µM (inactive) | GI50 [18]: > 100 µM (inactive) | GI50 [19]: 8.3 µM (inactive) | GI50 [20]: 76.7 µM (inactive) | GI50 [21]: 44.9 µM (inactive) | GI50 [22]: 60.1 µM (inactive) | GI50 [23]: 50.4 µM (inactive) | GI50 [24]: > 61.9 µM (inactive) | GI50 [25]: 41.6 µM (inactive) | GI50 [26]: 44.5 µM (inactive) | GI50 [27]: 83 µM (inactive) | GI50 [28]: 50.4 µM (inactive) | GI50 [29]: > 68.5 µM (inactive) | GI50 [30]: 58.9 µM (inactive) | GI50 [31]: > 100 µM (inactive) | GI50 [32]: > 100 µM (inactive) | GI50 [33]: > 50.8 µM (inactive) | GI50 [34]: > 100 µM (inactive) | GI50 [35]: 54.8 µM (inactive) | GI50 [36]: 86.5 µM (inactive) | GI50 [37]: 21.5 µM (inactive) | GI50 [38]: > 78.5 µM (inactive) | GI50 [39]: > 77.1 µM (inactive) | GI50 [40]: > 100 µM (inactive) | GI50 [41]: > 100 µM (inactive) | GI50 [42]: 39.1 µM (inactive) | GI50 [43]: 55 µM (inactive) | GI50 [44]: 47.6 µM (inactive) | GI50 [45]: > 100 µM (inactive) | GI50 [46]: 21.7 µM (inactive) | GI50 [47]: > 100 µM (inactive) | GI50 [48]: > 100 µM (inactive) | GI50 [49]: > 100 µM (inactive) | GI50 [50]: 72.3 µM (inactive) | GI50 [51]: > 100 µM (inactive) | GI50 [52]: > 76.4 µM (inactive) | GI50 [53]: 44.9 µM (inactive) | GI50 [54]: 10.2 µM (inactive) | GI50 [55]: > 96.2 µM (inactive) | GI50 [56]: 33.7 µM (inactive) | GI50 [57]: > 93.1 µM | GI50 [58]: 31.8 µM (inactive) | GI50 [59]: 51.1 µM (inactive)

COc1cc2cc[n+](C)c(Cc3ccccc3)c2cc1OC
GI50 [1]: > 100 µM (inactive) | GI50 [2]: > 100 µM (inactive) | GI50 [60]: > 100 µM (inactive) | GI50 [61]: > 100 µM (inactive) | GI50 [5]: > 100 µM (inactive) | GI50 [6]: > 100 µM (inactive) | GI50 [9]: > 100 µM (inactive) | GI50 [11]: > 100 µM (inactive) | GI50 [12]: > 100 µM (inactive) | GI50 [13]: > 100 µM (inactive) | GI50 [14]: > 100 µM (inactive) | GI50 [15]: > 100 µM (inactive) | GI50 [62]: 79.6 µM (inactive) | GI50 [16]: > 100 µM (inactive) | GI50 [17]: > 100 µM (inactive) | GI50 [20]: > 100 µM (inactive) | GI50 [21]: > 100 µM (inactive) | GI50 [22]: > 100 µM (inactive) | GI50 [23]: > 100 µM (inactive) | GI50 [63]: > 100 µM (inactive) | GI50 [64]: > 100 µM (inactive) | GI50 [24]: > 100 µM (inactive) | GI50 [26]: > 100 µM (inactive) | GI50 [27]: > 100 µM (inactive) | GI50 [28]: > 100 µM (inactive) | GI50 [29]: > 100 µM (inactive) | GI50 [30]: > 100 µM (inactive) | GI50 [31]: > 100 µM (inactive) | GI50 [32]: > 100 µM (inactive) | GI50 [33]: > 100 µM (inactive) | GI50 [34]: > 100 µM (inactive) | GI50 [35]: > 100 µM (inactive) | GI50 [36]: > 100 µM (inactive) | GI50 [65]: > 100 µM (inactive) | GI50 [37]: > 100 µM (inactive) | GI50 [38]: > 100 µM (inactive) | GI50 [66]: > 100 µM (inactive) | GI50 [39]: > 100 µM (inactive) | GI50 [41]: > 100 µM (inactive) | GI50 [42]: 86.1 µM (inactive) | GI50 [43]: > 100 µM (inactive) | GI50 [44]: > 100 µM (inactive) | GI50 [46]: 96.6 µM (inactive) | GI50 [47]: > 100 µM (inactive) | GI50 [48]: > 100 µM (inactive) | GI50 [49]: > 100 µM (inactive) | GI50 [51]: > 100 µM (inactive) | GI50 [52]: > 100 µM (inactive) | GI50 [53]: > 100 µM (inactive) | GI50 [54]: > 100 µM (inactive) | GI50 [57]: > 100 µM
